Patent US20230031406A1, “COMPOUNDS AND COMPOSITIONS FOR TREATING CONDITIONS ASSOCIATED WITH NLRP ACTIVITY” (Novartis AG, priority 2018, published 2023)

System: PMA-differentiated THP-1 cells
Assay: IL-1β production in PMA-differentiated THP-1 cells stimulated with gramicidin (hTHP-1 assay containing 2% fetal bovine serum; Procedures 1 and 2)
Format: cell-based, human
Conditions: Homo sapiens, THP-1, Table B3; hTHP-1 assay, 2% fetal bovine serum; class symbols; read-out: IC50
In short: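 IL-1β release from PMA-differentiated THP-1 macrophage-like cells was triggered by 5 μM gramicidin for 2 h after 1 h compound exposure, then measured by HTRF.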

`CC(C)(O)c1ncc([S@](N)(=O)=NC(=O)Nc2c3c(nc(CC(F)(F)F)c2C2CC2)CCC3)s1` [Example 578, (R)-N′-((3-cyclopropyl-2-(2,2,2-trifluoroethyl)-6,7-dihydro-5H-cyclopenta[b]pyridin-4-yl)carbamoyl)-2-(2-hydroxypropan-2-yl)thiazole-5-sulfonimidamide] and `Cc1c(C2(F)CC2)nc2c(c1NC(=O)N=[S@@](N)(=O)c1cnc(C(C)(C)O)s1)CCC2` [Example 579, (R)-N′-((2-(1-fluorocyclopropyl)-3-methyl-6,7-dihydro-5H-cyclopenta[b]pyridin-4-yl)carbamoyl)-2-(2-hydroxypropan-2-yl)thiazole-5-sulfonimidamide] fall in the same range of IC50: 1000 to 5000 nM for the first, 1000 to 5000 nM for the second.

First: CN[C@H]1COc2c(S(N)(=O)=NC(=O)Nc3c(C)c(C(F)(F)F)nc4c3CCC4)cnn2C1 (stereo partly drawn) [Example 580, (6R)-N′-((3-methyl-2-(trifluoromethyl)-6,7-dihydro-5H-cyclopenta[b]pyridin-4-yl)carbamoyl)-6-(methylamino)-6,7-dihydro-5H-pyrazolo[5,1-b][1,3]oxazine-3-sulfonimidamide]
Second: Cc1c(C(F)(F)F)nc2c(c1NC(=O)N=S(N)(=O)c1cnn3c1OC[C@H](O)C3)CCC2 (stereo partly drawn) [Example 601, (6R)-6-hydroxy-N′-((3-methyl-2-(trifluoromethyl)-6,7-dihydro-5H-cyclopenta[b]pyridin-4-yl)carbamoyl)-6,7-dihydro-5H-pyrazolo[5,1-b][1,3]oxazine-3-sulfonimidamide]
The IC50 of the first is lower: 1000 to 5000 nM for the first, 5000 to 30000 nM for the second.

First: CC(O)c1csc([S@](N)(=O)=NC(=O)Nc2c3c(nc4c2CC[C@H]4C)CCC3)c1 (stereo partly drawn) [Example 582, (R)-4-(1-hydroxyethyl)-N′-(((R)-3-methyl-1,2,3,5,6,7-hexahydrodicyclopenta[b,e]pyridin-8-yl)carbamoyl)thiophene-2-sulfonimidamide]
Second: CC(C)n1nc(S(N)(=O)=NC(=O)Nc2c3c(nc4c2CC[C@H]4C)CCC3)cc1CO (stereo partly drawn) [Example 596, 5-(Hydroxymethyl)-1-isopropyl-N-(((R)-3-methyl-1,2,3,5,6,7-hexahydrodicyclopenta[b,e]pyridin-8-yl)carbamoyl)-1H-pyrazole-3-sulfonimidamide]
The IC50 of the first is lower: 40 to 200 nM for the first, 1000 to 5000 nM for the second.

`Cc1c(C(F)(F)F)nc2c(c1NC(=O)N=S(N)(=O)c1cc(CO)n(C(C)C)n1)CCC2` (centres unmarked) [Example 585, 5-(Hydroxymethyl)-1-isopropyl-N′-((3-methyl-2-(trifluoromethyl)-6,7-dihydro-5H-cyclopenta[b]pyridin-4-yl)carbamoyl)-1H-pyrazole-3-sulfonimidamide] and `CCn1nc(S(N)(=O)=NC(=O)Nc2c(C)c(C(F)(F)F)nc3c2CCC3)cc1CO` (centres unmarked) [Example 588, 1-Ethyl-5-(hydroxymethyl)-N′-((3-methyl-2-(trifluoromethyl)-6,7-dihydro-5H-cyclopenta[b]pyridin-4-yl)calbamoyl)-1H-pyrazole-3-sulfonimidamide] fall in the same range of IC50: 1000 to 5000 nM for the first, 1000 to 5000 nM for the second.

First: Cc1nc2c(c(NC(=O)N=S(N)(=O)c3sc(C(O)(CO)CO)nc3CO)c1C(F)(F)F)CCC2 (centres unmarked) [Example 587, 4-(Hydroxymethyl)-N′-((2-methyl-3-(trifluoromethyl)-6,7-dihydro-5H-cyclopenta[b]pyridin-4-yl)calbamoyl)-2-(1,2,3-trihydroxypropan-2-yl)thiazole-5-sulfonimidamide]
Second: CC1(C)CCc2c1nc1c(c2NC(=O)N=S(N)(=O)c2sc(C(C)(O)CO)nc2CO)CCC1 (centres unmarked) [Example 598, 2-(1,2-Dihydroxypropan-2-yl)-N′-((3,3-dimethyl-1,2,3,5,6,7-hexahydrodicyclopenta[b,e]pyridin-8-yl)carbamoyl)-4-(hydroxymethyl)thiazole-5-sulfonimidamide]
The IC50 of the first is higher: 5000 to 30000 nM for the first, 200 to 1000 nM for the second. The second is the more potent here.

`CCn1nc(S(N)(=O)=NC(=O)Nc2c3c(nc4c2CCC42CC2)CCC3)cc1CO` (centres unmarked) [Example 589, 1-Ethyl-5-(hydroxymethyl)-N′-((1′,5′,6′,7′-tetrahydro-2′H-spiro[cyclopropane-1,3′-dicyclopenta[b,e]pyridin]-8′-yl)carbamoyl)-1H-pyrazole-3-sulfonimidamide] and `CCn1nc(S(N)(=O)=NC(=O)Nc2c3c(nc4c2CCC4(C)C)CCC3)cc1CO` (centres unmarked) [Example 591, N′-((3,3-dimethyl-1,2,3,5,6,7-hexahydrodicyclopenta[b,e]pyridin-8-yl)carbamoyl)-1-ethyl-5-(hydroxymethyl)-1H-pyrazole-3-sulfonimidamide] fall in the same range of IC50: 1000 to 5000 nM for the first, 1000 to 5000 nM for the second.

`CCn1nc(S(N)(=O)=NC(=O)Nc2c3c(nc4c2CC[C@H]4C)CCC3)cc1CO` (stereo partly drawn) [Example 590, 1-Ethyl-5-(hydroxymethyl)-N′-(((R)-3-methyl-1,2,3,5,6,7-hexahydrodicyclopenta[b,e]pyridin-8-yl)carbamoyl)-1H-pyrazole-3-sulfonimidamide] and `CC(C)n1nc(S(N)(=O)=NC(=O)Nc2c3c(nc4c2CCC42CC2)CCC3)cc1CO` (centres unmarked) [Example 595, 5-(Hydroxymethyl)-1-isopropyl-N′-((1′,5′,6′,7′-tetrahydro-2′H-spiro[cyclopropane-1,3′-dicyclopenta[b,e]pyridin]-8′-yl)carbamoyl)-1H-pyrazole-3-sulfonimidamide] fall in the same range of IC50: 1000 to 5000 nM for the first, 1000 to 5000 nM for the second.

First: CCc1c(CC(F)(F)F)nc2c(c1NC(=O)N=S(N)(=O)c1sc(C(C)(C)O)cc1F)CCC2 (centres unmarked) [Example 594, N′-((3-ethyl-2-(2,2,2-trifluoroethyl)-6,7-dihydro-5H-cyclopenta[b]pyridin-4-yl)carbamoyl)-3-fluoro-5-(2-hydroxypropan-2-yl)thiophene-2-sulfonimidamide]
Second: CCn1cc(F)c(S(N)(=O)=NC(=O)Nc2c(C)c(C(F)(F)F)nc3c2CCC3)n1 (centres unmarked) [Example 597, 1-Ethyl-4-fluoro-N′-((3-methyl-2-(trifluoromethyl)-6,7-dihydro-5H-cyclopenta[b]pyridin-4-yl)calbamoyl)-1H-pyrazole-3-sulfonimidamide]
The IC50 of the first is higher: 1000 to 5000 nM for the first, 40 to 200 nM for the second. The second is the more potent here.

Compared with `CC1(C)CCc2c1nc1c(c2NC(=O)N=S(N)(=O)c2sc([C@@](C)(O)CO)nc2CO)CCC1` (stereo partly drawn) [Example 599, 2-((S)-1,2-dihydroxypropan-2-yl)-N′-((3,3-dimethyl-1,2,3,5,6,7-hexahydrodicyclopenta[b,e]pyridin-8-yl)carbamoyl)-4-(hydroxymethyl)thiazole-5-sulfonimidamide], `CC1(C)CCc2c1nc1c(c2NC(=O)N=S(N)(=O)c2sc([C@](C)(O)CO)nc2CO)CCC1` (stereo partly drawn) [Example 600, 2-((R)-1,2-dihydroxypropan-2-yl)-N′-((3,3-dimethyl-1,2,3,5,6,7-hexahydrodicyclopenta[b,e]pyridin-8-yl)carbamoyl)-4-(hydroxymethyl)thiazole-5-sulfonimidamide] is lower in IC50: 1000 to 5000 nM for the first, 200 to 1000 nM for the second. The second is the more potent here.

Same assay, conditions: Homo sapiens, THP-1, Table B3; hTHP-1 assay, 2% fetal bovine serum; numeric values; read-out: IC50

`Cc1nc2c(c(NC(=O)N=[S@@](N)(=O)c3cnc(C(C)(C)O)s3)c1C1CC1)CCC2` [Example 581, (R)-N′-((3-cyclopropyl-2-methyl-6,7-dihydro-5H-cyclopenta[b]pyridin-4-yl)carbamoyl)-2-(2-hydroxypropan-2-yl)thiazole-5-sulfonimidamide] and `CC1(C)CCc2c1nc1c(c2NC(=O)NS(=N)(=O)c2cnc([C@@](C)(O)COCCOCCOCCOCCO)s2)CCC1` (stereo partly drawn) [Example 584, 2-((S)-1,14-dihydroxy-3,6,9,12-tetraoxapentadecan-14-yl)-N-((3,3-dimethyl-1,2,3,5,6,7-hexahydrodicyclopenta[b,e]pyridin-8-yl)carbamoyl)thiazole-5-sulfonimidamide] cannot be ordered by IC50: greater than 30000 nM for the first, greater than 30000 nM for the second.
